Experimental data: US12084444B2, “Spiro-lactam NMDA modulators and methods of using same” (Tenacia Biotechnology (Hong Kong) Co., Limited, priority 2016, dated 2024)

Assays:
Format in all cases: biochemical
[1] = target: T1, NMDAR2A expressing HEK cell membranes (Homo sapiens, UniProt Q05586+Q12879); experiment: NMDAR agonist assay, [3H]MK-801 binding, NMDAR2A; parameters: key to NMDAR2A B: log EC50: 0=−; ≥1×10^−9 M (e.g., −8)=+; <1×10^−9 M (e.g., −10)=++; settings: 50 μM glutamate; for EC50: read-out: NMDAR2A B: log EC50 (converted); for Emax: 0.25 h, read-out: NMDAR2A A: % maximal [3H]MK-801 binding relative to 1 mM glycine
T1 construct: expressed in transfected cells; host or cells: HEK cells (membrane extract)
Procedure: (§1) Assays were conducted as described by Moskal et al., “GLYX-13: a monoclonal antibody-derived peptide that acts as an N-methyl-D-aspartate receptor modulator,” Neuropharmacology, 49, 1077-87, 2005. These studies were designed to determine if the test compounds act to facilitate NMDAR activation in NMDAR2A, NMDAR2B, NMDAR2C or NMDAR2D expressing HEK cell membranes as measured by increases in [^3H]MK-801 binding.
(§2) In the assay, 300 μg of NMDAR expressing HEK cell membrane extract protein was preincubated for 15 minutes at 25° C. in the presence of saturating concentrations of glutamate (50 μM) and varying concentrations of test compound (1×10^−15 M-1×10^−7 M), or 1 mM glycine. Following the addition of 0.3 μCi of [^3H]MK-801 (22.5 Ci/mmol), reactions were again incubated for 15 minutes at 25° C. (nonequilibrium conditions). Bound and free [^3H]MK-801 were separated via rapid filtration using a Brandel apparatus.
(§3) In analyzing the data, the DPM (disintegrations per minute) of [^3H]MK-801 remaining on the filter were measured for each concentration of test compound or for 1 mM glycine. The DPM values for each concentration of a ligand (N=2) were averaged. The baseline value was determined from the best fit curve of the DPM values modeled using the GraphPad program and the log(agonist) vs. response(three parameters) algorithm was then subtracted from all points in the dataset. The % maximal [^3H]MK-801 binding was then calculated relative to that of 1 mM glycine: all baseline subtracted DPM values were divided by the average value for 1 mM glycine. The EC50 and % maximal activity were then obtained from the best fit curve of the % maximal [^3H]MK-801 binding data modelled using the GraphPad program and the log(agonist) vs. response(three parameters) algorithm.
(§4) The tables below summarize the results for the wild type NMDAR agonists NMDAR2A, NMDAR2B, NMDAR2C, and NMDAR2D, and whether the compound is not an agonist (−), is an agonist (+), or is a strong agonist (++), where column A is based on the % maximal [^3H]MK-801 binding relative to 1 mM glycine (−=0; <100%=+; and >100%=++); and column B is based on log EC50 values (0=−; ≥1×10^−9 M (e.g., −8)=+; and <1×10^−9 M (e.g., −10)=++).

[2] = target: T2, NMDAR2B expressing HEK cell membranes (Homo sapiens, UniProt Q05586+Q13224); experiment: NMDAR agonist assay, [3H]MK-801 binding, NMDAR2B; parameters: key to NMDAR2B B: log EC50: 0=−; ≥1×10^−9 M (e.g., −8)=+; <1×10^−9 M (e.g., −10)=++; settings: 50 μM glutamate; for EC50: read-out: NMDAR2B B: log EC50 (converted); for Emax: 0.25 h, read-out: NMDAR2B A: % maximal [3H]MK-801 binding relative to 1 mM glycine
T2 construct: expressed in transfected cells; host or cells: HEK cells (membrane extract)
T2 sequence (Q13224 27-1484, other chains not shown): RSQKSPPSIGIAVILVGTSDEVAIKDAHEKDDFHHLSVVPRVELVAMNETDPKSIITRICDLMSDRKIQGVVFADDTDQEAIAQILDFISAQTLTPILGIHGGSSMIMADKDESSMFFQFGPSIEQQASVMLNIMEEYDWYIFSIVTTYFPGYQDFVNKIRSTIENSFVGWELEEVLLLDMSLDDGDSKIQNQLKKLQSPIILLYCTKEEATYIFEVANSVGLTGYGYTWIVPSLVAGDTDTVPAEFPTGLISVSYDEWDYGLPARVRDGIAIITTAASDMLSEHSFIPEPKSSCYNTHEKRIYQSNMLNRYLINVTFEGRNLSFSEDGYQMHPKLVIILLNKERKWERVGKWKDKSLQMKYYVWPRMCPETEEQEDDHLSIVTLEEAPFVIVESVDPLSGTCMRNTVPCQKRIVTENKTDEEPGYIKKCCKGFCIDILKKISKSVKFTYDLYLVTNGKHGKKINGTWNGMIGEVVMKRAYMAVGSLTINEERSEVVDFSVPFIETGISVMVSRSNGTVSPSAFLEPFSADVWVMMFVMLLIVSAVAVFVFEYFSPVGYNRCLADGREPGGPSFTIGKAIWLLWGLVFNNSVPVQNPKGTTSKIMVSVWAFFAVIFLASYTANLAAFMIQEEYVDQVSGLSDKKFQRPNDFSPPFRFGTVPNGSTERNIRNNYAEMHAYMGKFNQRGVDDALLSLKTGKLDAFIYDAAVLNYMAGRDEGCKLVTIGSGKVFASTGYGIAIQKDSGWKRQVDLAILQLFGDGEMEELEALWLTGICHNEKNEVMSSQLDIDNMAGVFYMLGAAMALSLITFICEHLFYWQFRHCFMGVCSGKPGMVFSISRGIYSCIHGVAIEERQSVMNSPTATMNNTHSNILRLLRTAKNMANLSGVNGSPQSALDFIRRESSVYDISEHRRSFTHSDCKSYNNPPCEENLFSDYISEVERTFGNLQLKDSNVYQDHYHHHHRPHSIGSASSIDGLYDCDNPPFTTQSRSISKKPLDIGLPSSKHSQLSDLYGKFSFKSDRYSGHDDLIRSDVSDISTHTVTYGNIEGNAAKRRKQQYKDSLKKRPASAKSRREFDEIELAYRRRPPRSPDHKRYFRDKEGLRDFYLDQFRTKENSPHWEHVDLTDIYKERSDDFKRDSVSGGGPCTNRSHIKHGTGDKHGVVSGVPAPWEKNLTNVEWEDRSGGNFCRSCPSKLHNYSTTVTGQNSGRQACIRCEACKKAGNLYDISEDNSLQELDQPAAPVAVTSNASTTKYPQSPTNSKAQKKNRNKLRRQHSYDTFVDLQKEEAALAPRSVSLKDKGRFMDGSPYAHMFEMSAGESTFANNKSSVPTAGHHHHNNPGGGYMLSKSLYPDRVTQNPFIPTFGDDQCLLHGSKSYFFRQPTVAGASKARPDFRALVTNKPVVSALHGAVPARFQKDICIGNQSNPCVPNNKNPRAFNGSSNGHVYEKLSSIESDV
Procedure: as §1, §2, §3, §4

[3] = target: T3, NMDAR2A expressing HEK cell membranes (Homo sapiens, UniProt Q12879); experiment: NMDAR agonist assay, [3H]MK-801 binding, NMDAR2A; parameters: key to NMDAR2A B: log EC50: 0=−; ≥1×10^−9 M (e.g., −8)=+; <1×10^−9 M (e.g., −10)=++; settings: 50 μM glutamate; for EC50: read-out: NMDAR2A B: log EC50 (converted)
T3 construct: expressed in transfected cells; host or cells: HEK cells (membrane extract)
T3 sequence (Q12879 23-1464, other chains not shown): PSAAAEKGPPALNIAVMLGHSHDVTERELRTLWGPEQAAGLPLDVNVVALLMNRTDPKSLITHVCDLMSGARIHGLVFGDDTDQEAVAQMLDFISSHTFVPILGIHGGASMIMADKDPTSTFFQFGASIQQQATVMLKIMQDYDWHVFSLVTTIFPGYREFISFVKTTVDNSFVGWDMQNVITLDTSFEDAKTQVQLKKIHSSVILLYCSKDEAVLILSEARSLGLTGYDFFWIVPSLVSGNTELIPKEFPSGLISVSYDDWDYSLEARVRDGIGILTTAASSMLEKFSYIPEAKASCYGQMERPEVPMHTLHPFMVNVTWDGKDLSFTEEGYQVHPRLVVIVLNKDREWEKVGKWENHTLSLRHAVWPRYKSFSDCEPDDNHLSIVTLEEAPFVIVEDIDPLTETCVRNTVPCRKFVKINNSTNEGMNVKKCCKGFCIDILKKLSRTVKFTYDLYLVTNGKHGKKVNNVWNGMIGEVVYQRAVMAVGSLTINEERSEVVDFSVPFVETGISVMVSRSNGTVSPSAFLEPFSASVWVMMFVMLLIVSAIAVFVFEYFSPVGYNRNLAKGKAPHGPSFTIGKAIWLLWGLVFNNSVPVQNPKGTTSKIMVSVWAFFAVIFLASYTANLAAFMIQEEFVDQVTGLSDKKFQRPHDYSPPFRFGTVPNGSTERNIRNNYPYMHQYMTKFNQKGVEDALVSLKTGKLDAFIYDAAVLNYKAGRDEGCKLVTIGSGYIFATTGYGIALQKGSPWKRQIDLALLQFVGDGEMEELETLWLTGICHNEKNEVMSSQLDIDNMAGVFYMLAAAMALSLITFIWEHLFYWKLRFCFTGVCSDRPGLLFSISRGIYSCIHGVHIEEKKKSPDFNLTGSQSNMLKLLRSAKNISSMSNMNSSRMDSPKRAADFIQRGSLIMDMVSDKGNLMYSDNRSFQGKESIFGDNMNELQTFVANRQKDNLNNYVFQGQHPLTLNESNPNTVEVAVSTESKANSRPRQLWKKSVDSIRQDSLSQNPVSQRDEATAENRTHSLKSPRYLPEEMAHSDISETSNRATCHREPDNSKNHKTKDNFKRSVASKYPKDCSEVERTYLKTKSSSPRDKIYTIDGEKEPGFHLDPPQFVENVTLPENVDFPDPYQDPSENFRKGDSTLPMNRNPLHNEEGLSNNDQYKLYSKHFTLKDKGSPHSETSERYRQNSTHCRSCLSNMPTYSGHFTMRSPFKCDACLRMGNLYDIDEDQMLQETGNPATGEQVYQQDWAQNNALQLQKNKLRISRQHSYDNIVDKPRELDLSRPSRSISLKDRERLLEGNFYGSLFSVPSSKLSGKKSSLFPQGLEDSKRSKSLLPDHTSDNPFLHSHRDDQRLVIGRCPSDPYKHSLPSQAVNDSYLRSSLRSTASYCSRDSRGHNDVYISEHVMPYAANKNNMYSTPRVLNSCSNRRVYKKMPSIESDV
Procedure: as §1, §2, §3, §4

[4] = target: T4, NMDAR2B expressing HEK cell membranes (Homo sapiens, UniProt Q13224); experiment: NMDAR agonist assay, [3H]MK-801 binding, NMDAR2B; parameters: key to NMDAR2B B: log EC50: 0=−; ≥1×10^−9 M (e.g., −8)=+; <1×10^−9 M (e.g., −10)=++; settings: 50 μM glutamate; for EC50: read-out: NMDAR2B B: log EC50 (converted)
T4 construct: expressed in transfected cells; host or cells: HEK cells (membrane extract)
T4 sequence (Q13224 27-1484, other chains not shown): as the sequence (Q13224 27-1484, other chains not shown) above
Procedure: as §1, §2, §3, §4

SMILES	EC50 [1]	Emax [1]	EC50 [2]	Emax [2]	NMDAR2A B: log EC50 [3]	NMDAR2B B: log EC50 [4]	EC50 [3]	EC50 [4]	NMDAR2A A: % maximal [3H]MK-801 binding relative to 1 mM glycine [3]	NMDAR2B A: % maximal [3H]MK-801 binding relative to 1 mM glycine [4]
CC1CC(=O)N(c2ccc(F)cc2)C12CN(Cc1ccccc1)C2=O (single isomer, unassigned) [BX, 2-benzyl-5-(4-fluorophenyl)-8-methyl-2,5-diazaspiro[3.4]octane-1,6-dione]		0%	< 1 nM	< 100%	−					
CC1C(O)C(=O)N(C)C12CN(Cc1ccccc1)C2=O (single isomer, unassigned) [DN, 2-benzyl-7-hydroxy-5,8-dimethyl-2,5-diazaspiro[3.4]octane-1,6-dione]	< 1 nM					−				
CN1CCC2(CC1=O)CN(Cc1ccccc1)C2=O (single isomer, unassigned) [CW, 2-benzyl-7-methyl-2,7-diazaspiro[3.5]nonane-1,6-dione]	< 1 nM	< 100%	< 1 nM	> 100%						
COc1ccc(CN2CC3(CCNC(=S)C3)C2=S)cc1 (single isomer, unassigned) [CO, 2-(4-methoxybenzyl)-2,7-diazaspiro[3.5]nonane-1,6-dithione]	< 1 nM	< 100%				−				− (−=0)
CC1C(O)C(=O)N(C)C12CN(Cc1ccccc1)C2=O (single isomer, unassigned) [DM, 2-benzyl-7-hydroxy-5,8-dimethyl-2,5-diazaspiro[3.4]octane-1,6-dione]	≥ 1 nM	< 100%		0%		−				
CCN1CCC2(CC1=O)CN(Cc1ccccc1)C2=O (single isomer, unassigned) [CZ, 2-benzyl-7-ethyl-2,7-diazaspiro[3.5]nonane-1,6-dione]	≥ 1 nM					−				
COc1ccc(CN2CC3(CCN(C)C(=O)C3)C2=O)cc1 (single isomer, unassigned) [CJ, 2-(4-methoxybenzyl)-7-methyl-2,7-diazaspiro[3.5]nonane-1,6-dione]							< 1 nM	< 1 nM	+ (<100%=+)	++ (>100%=++)
CCN1CCC2(CC1=O)CN(Cc1ccccc1)C2=O (single isomer, unassigned) [CY, 2-benzyl-7-ethyl-2,7-diazaspiro[3.5]nonane-1,6-dione]	< 1 nM	< 100%		0%		−				
CC1C(N)C(=O)N(C)C12CN(Cc1ccccc1)C2=O (single isomer, unassigned) [CG, 7-amino-2-benzyl-5,8-dimethyl-2,5-diazaspiro[3.4]octane-1,6-dione]		0%	< 1 nM	< 100%	−					
COc1ccc(CN2CC3(CCN(CC(C)C)C(=O)C3)C2=O)cc1 (single isomer, unassigned) [CT, 7-isobutyl-2-(4-methoxybenzyl)-2,7-diazaspiro[3.5]nonane-1,6-dione]						−	< 1 nM		+ (<100%=+)	− (−=0)
COc1ccc(CN2CC3(CCN(CC(C)C)C(=O)C3)C2=O)cc1 (single isomer, unassigned) [CS, 7-isobutyl-2-(4-methoxybenzyl)-2,7-diazaspiro[3.5]nonane-1,6-dione]	< 1 nM	< 100%	< 1 nM							++ (>100%=++)
CN1CCC2(CC1=O)CN(Cc1ccccc1)C2=O (single isomer, unassigned) [CX, 2-benzyl-7-methyl-2,7-diazaspiro[3.5]nonane-1,6-dione]							< 1 nM	< 1 nM	+ (<100%=+)	+ (<100%=+)
CC1CC(=O)N(c2ccc(F)cc2)C12CN([C@H](C(N)=O)[C@@H](C)O)C2=O (single isomer, unassigned) [DK]	≥ 1 nM	> 100%		0%		−				

Second part, the molecule after the results:

EC50 [1]	Emax [1]	EC50 [2]	Emax [2]	NMDAR2A B: log EC50 [3]	NMDAR2B B: log EC50 [4]	EC50 [3]	EC50 [4]	NMDAR2A A: % maximal [3H]MK-801 binding relative to 1 mM glycine [3]	NMDAR2B A: % maximal [3H]MK-801 binding relative to 1 mM glycine [4]	SMILES
< 1 nM	< 100%	< 1 nM	< 100%							COc1ccc(CN2CC3(CCNC(=S)C3)C2=O)cc1 (single isomer, unassigned) [CN, 2-(4-methoxybenzyl)-6-thioxo-2,7-diazaspiro[3.5]nonan-1-one]
						< 1 nM	< 1 nM			CC(C)CN1CC2(CCNC(=O)C2)C1=O (single isomer, unassigned) [DF, 2-isobutyl-2,7-diazaspiro[3.5]nonane-1,6-dione]
< 1 nM		< 1 nM	< 100%					+ (<100%=+)		CC1CC(=O)N(C)C12CN(CC(N)=O)C2=O (single isomer, unassigned) [DI, 2-(5,8-dimethyl-1,6-dioxo-2,5-diazaspiro[3.4]octan-2-yl)acetamide]
< 1 nM	< 100%	< 1 nM	< 100%							CC(C)CN1CC2(CCNC(=O)C2)C1=O (single isomer, unassigned) [DE, 2-isobutyl-2,7-diazaspiro[3.5]nonane-1,6-dione]
		< 1 nM	< 100%	−				− (−=0)		O=C1CC2(CCN1)CN(Cc1ccccc1)C2=O (single isomer, unassigned) [CU, 2-benzyl-2,7-diazaspiro[3.5]nonane-1,6-dione]
	0%	< 1 nM	< 100%	−						CC1CC(=O)N(c2ccc(F)cc2)C12CN(CC(N)=O)C2=O (single isomer, unassigned) [CF, 2-(5-(4-fluorophenyl)-8-methyl-1,6-dioxo-2,5-diazaspiro[3.4]octan-2-yl)acetamide]
				−			< 1 nM	− (−=0)	+ (<100%=+)	NC(=O)CN1CC2(CCNC(=O)C2)C1=O (single isomer, unassigned) [DD, 2-(1,6-dioxo-2,7-diazaspiro[3.5]nonan-2-yl)acetamide]
	0%	< 1 nM	> 100%	−						CNC(=O)[C@H]([C@@H](C)O)N1CC2(CCNC(=O)C2)C1=O (single isomer, unassigned) [DB]
< 1 nM	< 100%				−				− (−=0)	CN1CC2(CCNC(=O)C2)C1=O (single isomer, unassigned) [DG, 2-methyl-2,7-diazaspiro[3.5]nonane-1,6-dione]
				−			< 1 nM	− (−=0)	+ (<100%=+)	CC1CC(=O)N(C)C12CN(CC(N)=O)C2=O (single isomer, unassigned) [DJ, 2-(5,8-dimethyl-1,6-dioxo-2,5-diazaspiro[3.4]octan-2-yl)acetamide]
< 1 nM		< 1 nM	< 100%					+ (<100%=+)		NC(=O)CN1CC2(CCNC(=O)C2)C1=O (single isomer, unassigned) [DC, 2-(1,6-dioxo-2,7-diazaspiro[3.5]nonan-2-yl)acetamide]
